# Measured values as given in patent US20170037125A1, “COMBINATION OF A PD-1 ANTAGONIST AND AN IDO1 INHIBITOR FOR TREATING CANCER” (INCYTE CORPORATION, priority 2014, published 2017).
# Marks after values point to notes of the source that are not given here.
# Key:
# [1] = Phase 1 dose-escalation clinical study of INCB024360 in combination with MK-3475: adverse events; type: in vivo
# Method: This Example describes an ongoing Phase 1/2 clinical study to evaluate the safety, tolerability and efficacy of the inventive combination of MK-3475 and INCB024360 in subjects presenting with various solid tumors and advanced non-small cell lung cancer (NSCLC). Phase 1 of the study is a dose-escalation phase and Phase 2 is randomized, double-blind, and placebo-controlled. Phase 1 of the study is conducted in subjects with selected advanced or metastatic solid tumors. Phase 2 of the study is conducted in subjects with advanced NSCLC, e.g., Stage IIIB, IV, or recurrent NSCLC. The dose-escalation phase (Phase 1) is open-label and is designed to identify the maximum tolerated dose (MTD) or pharmacologically acceptable doses (PAD) of INCB024360 in combination with MK-3475 in subjects with Stage IIIB, IV, or recurrent NSCLC, melanoma, transitional cell carcinoma of the genitourinary (GU) tract, renal cell cancer, triple negative breast cancer, adenocarcinoma of the endometrium or squamous cell carcinoma of the head and neck who have disease progression on at least 1 line of therapy for advanced or metastatic cancer.
# The Phase 1 dose-escalation phase includes cohorts of subjects treated with INCB024360 twice daily (BID) at initial doses of 25 mg BID, 50 mg BID, and 100 mg BID in combination with MK-3475 at 2 mg/kg every 3 weeks. One treatment cycle consists of 21 days. A minimum of 3 subjects are enrolled and treated in each cohort, and all 3 subjects are observed for a minimum of 42 days (6 weeks) before the subsequent cohort begins enrollment. Additional subjects are enrolled in a cohort to achieve the minimum of 3 evaluable subjects if dropouts or dose interruptions or reductions occur that result in a subject being nonevaluable for dose limiting toxicities (DLTs). When the MTD or PAD is reached, additional subjects are enrolled for a total of 9 subjects, but the additional subjects are treated with MK-3475 at 200 mg every 3 weeks and the MTD or PAD of INCB024360 to further evaluate safety and confirm it as the recommended Phase 2 dose (RP2D). The study subject cohorts are summarized as follows:
# For treatment, INCB024360 is self-administered orally BID and continued BID during the 21-day cycle for an every-3-week dose schedule of MK-3475. The MTD of INCB024360 (or PAD) defined during Phase 1 is used for Phase 2. All BID doses are taken morning and evening, approximately 12 hours apart without respect to food. If a dose is missed by more than 4 hours, that dose is skipped and is resumed at the scheduled time. MK-3475 is administered at 2 mg/kg or 200 mg intravenously (IV) over a 30-minute period on Day 1 of an every-3-week cycle, with no intrasubject dose escalation. Study subject participation averages about 6 months.
# Primary endpoints of the Phase 1 study are as follows: Safety and tolerability are assessed by monitoring frequency, duration and severity of AEs, through physical examinations, by evaluating changes in vital signs and electrocardiograms, and through clinical laboratory blood and urine sample evaluations. Primary endpoints of the Phase 2 study are as follows: Progression-free survival, defined as the time from randomization until the earliest date of disease progression, as determined by investigator assessment of objective radiographic disease assessments per modified RECIST v1.1, or death due to any cause, if occurring sooner than progression. Imaging is archived for possible retrospective central confirmation of disease progression and response.
# Table 4 below presents preliminary data of adverse events (AEs), including immune-related AEs, reported in the described study.
# [2] = system: selected advanced or metastatic solid tumors; test: Phase 1 dose-escalation clinical study of INCB024360 in combination with MK-3475: tumor response (modified RECIST v1.1); type: in vivo, human; settings: for CR, patients / NE (not evaluable), patients / PD, patients / PR, patients: preliminary
# Method: Phase 1 of the study is a dose-escalation phase and Phase 2 is randomized, double-blind, and placebo-controlled. Phase 1 of the study is conducted in subjects with selected advanced or metastatic solid tumors. Phase 2 of the study is conducted in subjects with advanced NSCLC, e.g., Stage IIIB, IV, or recurrent NSCLC. […] The Phase 1 dose-escalation phase includes cohorts of subjects treated with INCB024360 twice daily (BID) at initial doses of 25 mg BID, 50 mg BID, and 100 mg BID in combination with MK-3475 at 2 mg/kg every 3 weeks. One treatment cycle consists of 21 days. A minimum of 3 subjects are enrolled and treated in each cohort, and all 3 subjects are observed for a minimum of 42 days (6 weeks) before the subsequent cohort begins enrollment. […] The study subject cohorts are summarized as follows: For treatment, INCB024360 is self-administered orally BID and continued BID during the 21-day cycle for an every-3-week dose schedule of MK-3475. The MTD of INCB024360 (or PAD) defined during Phase 1 is used for Phase 2. All BID doses are taken morning and evening, approximately 12 hours apart without respect to food. If a dose is missed by more than 4 hours, that dose is skipped and is resumed at the scheduled time. […] Study subject participation averages about 6 months. The Study Schedule and Procedures for the Phase 1/2 study are as follows: […] Liver function test monitoring occurs weekly during the first 6 weeks of study treatment during Phase 1 and then is tested every 3 weeks thereafter and in Phase 2 for subjects who remain on study treatment. Assessment of tumor size (by magnetic resonance imaging or computed tomography scan) is performed at screening or baseline (before beginning therapy), every 9 weeks for 18 months, and then every 12 weeks thereafter until disease progression. Disease progression is defined as progression confirmed by a second, consecutive assessment at least 4 weeks apart with the option for continuing treatment while awaiting radiologic confirmation of progression where feasible, and where subjects are clinically stable, defined as the following: absence of signs and symptoms (including worsening of laboratory values) indicating disease progression, no decline in ECOG performance status, absence of rapid progression of disease, and absence of progressive tumors at critical anatomical sites (e.g., cord compression) requiring urgent alternative medical intervention. […] In accordance with the protocol, INCB024360 was administered in combination with MK-3475. MK-3475 was intravenously administered at a dose of 2 mg/kg as described.
# [3] = biological target: human indoleamine 2,3-dioxygenasae (IDO) (Homo sapiens, UniProt P14902); settings: human IDO enzyme assay; see U.S. Pat. No. 8,088,803; cited from earlier work
# [4] = Grade 3 or 4, 25 mg BID (n = 4)
# [5] = Grade 3 or 4, 50 mg BID (n = 8)
# [6] = INCB024360 25 mg BID (n = 4) with MK-3475 2 mg/kg IV
# [7] = INCB024360 50 mg BID (n = 4) with MK-3475 2 mg/kg IV
# [8] = subjects evaluable for response, both cohorts, with MK-3475
# human indoleamine 2,3-dioxygenasae (IDO), sequence (P14902 whole entry): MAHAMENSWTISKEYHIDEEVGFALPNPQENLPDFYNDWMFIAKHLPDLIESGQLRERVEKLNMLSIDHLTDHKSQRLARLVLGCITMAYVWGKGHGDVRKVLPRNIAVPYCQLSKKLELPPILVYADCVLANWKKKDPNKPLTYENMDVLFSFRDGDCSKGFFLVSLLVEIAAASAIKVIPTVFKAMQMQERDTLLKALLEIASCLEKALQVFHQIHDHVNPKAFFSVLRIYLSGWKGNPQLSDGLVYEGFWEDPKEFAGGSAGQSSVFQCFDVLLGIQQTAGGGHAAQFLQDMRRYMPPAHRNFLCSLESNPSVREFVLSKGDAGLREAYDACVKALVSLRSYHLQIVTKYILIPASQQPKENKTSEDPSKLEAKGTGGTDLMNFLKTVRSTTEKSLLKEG
compound,measurement,setting,value
"NS(=O)(=O)NCCNc1nonc1C(=NO)Nc1ccc(F)c(Br)c1 [Compound 1, 4-({2-[(aminosulfonyl)amino]ethyl}amino)-N-(3-bromo-4-fluorophenyl)-N′-hydroxy-1,2,5-oxadiazole-3-carboximidamide]",Grade 3 rash related to dose limiting toxicity (DLT),[1]; 50 mg BID cohort,one
same,Cough (AE),"[1]; All Grades, 25 mg BID (n = 4)",2 n (%)
same,"DVT (IJ) (AE; Deep Vein Thrombosis, Internal Jugular)","[1]; All Grades, 25 mg BID (n = 4)",1 n (%)
same,Diarrhea (AE),"[1]; All Grades, 25 mg BID (n = 4)",2 n (%)
same,Dyspnea (AE),"[1]; All Grades, 25 mg BID (n = 4)",1 n (%)
same,Fall (AE),"[1]; All Grades, 25 mg BID (n = 4)",0 n (%)
same,Fatigue (AE),"[1]; All Grades, 25 mg BID (n = 4)",0 n (%)
same,Headache (AE),"[1]; All Grades, 25 mg BID (n = 4)",1 n (%)
same,Mild Infusion Reaction (AE),"[1]; All Grades, 25 mg BID (n = 4)",0 n (%)
same,Nausea (AE),"[1]; All Grades, 25 mg BID (n = 4)",2 n (%)
same,Pruritis (AE),"[1]; All Grades, 25 mg BID (n = 4)",1 n (%)
same,Rash (AE),"[1]; All Grades, 25 mg BID (n = 4)",0 n (%)
same,Cough (AE),"[1]; All Grades, 50 mg BID (n = 8)",0 n (%)
same,"DVT (IJ) (AE; Deep Vein Thrombosis, Internal Jugular)","[1]; All Grades, 50 mg BID (n = 8)",0 n (%)
same,Diarrhea (AE),"[1]; All Grades, 50 mg BID (n = 8)",0 n (%)
same,Dyspnea (AE),"[1]; All Grades, 50 mg BID (n = 8)",0 n (%)
same,Fall (AE),"[1]; All Grades, 50 mg BID (n = 8)",1 n (%)
same,Fatigue (AE),"[1]; All Grades, 50 mg BID (n = 8)",1 n (%)
same,Headache (AE),"[1]; All Grades, 50 mg BID (n = 8)",0 n (%)
same,Mild Infusion Reaction (AE),"[1]; All Grades, 50 mg BID (n = 8)",1 n (%)
same,Nausea (AE),"[1]; All Grades, 50 mg BID (n = 8)",1 n (%)
same,Pruritis (AE),"[1]; All Grades, 50 mg BID (n = 8)",0 n (%)
same,Rash (AE),"[1]; All Grades, 50 mg BID (n = 8)",2 n (%)
same,Cough (AE),"[1]; All Grades, Total (N = 12)",2 n (%)
same,"DVT (IJ) (AE; Deep Vein Thrombosis, Internal Jugular)","[1]; All Grades, Total (N = 12)",1 n (%)
same,Diarrhea (AE),"[1]; All Grades, Total (N = 12)",2 n (%)
same,Dyspnea (AE),"[1]; All Grades, Total (N = 12)",1 n (%)
same,Fall (AE),"[1]; All Grades, Total (N = 12)",1 n (%)
same,Fatigue (AE),"[1]; All Grades, Total (N = 12)",1 n (%)
same,Headache (AE),"[1]; All Grades, Total (N = 12)",1 n (%)
same,Mild Infusion Reaction (AE),"[1]; All Grades, Total (N = 12)",1 n (%)
same,Nausea (AE),"[1]; All Grades, Total (N = 12)",3 n (%)
same,Pruritis (AE),"[1]; All Grades, Total (N = 12)",1 n (%)
same,Rash (AE),"[1]; All Grades, Total (N = 12)",2 n (%)
same,Cough (AE),[1]; [4],0 n (%)
same,"DVT (IJ) (AE; Deep Vein Thrombosis, Internal Jugular)",[1]; [4],0 n (%)
same,Dyspnea (AE),[1]; [4],0 n (%)
same,Fall (AE),[1]; [4],0 n (%)
same,Fatigue (AE),[1]; [4],0 n (%)
same,Headache (AE),[1]; [4],0 n (%)
same,Mild Infusion Reaction (AE),[1]; [4],0 n (%)
same,Nausea (AE),[1]; [4],0 n (%)
same,Pruritis (AE),[1]; [4],0 n (%)
same,Rash (AE),[1]; [4],0 n (%)
same,Cough (AE),[1]; [5],0 n (%)
same,"DVT (IJ) (AE; Deep Vein Thrombosis, Internal Jugular)",[1]; [5],0 n (%)
same,Dyspnea (AE),[1]; [5],0 n (%)
same,Fatigue (AE),[1]; [5],0 n (%)
same,Headache (AE),[1]; [5],0 n (%)
same,Mild Infusion Reaction (AE),[1]; [5],0 n (%)
same,Nausea (AE),[1]; [5],0 n (%)
same,Pruritis (AE),[1]; [5],0 n (%)
same,Rash (AE),[1]; [5],1 n (%)
same,Fall (AE),"[1]; Grade 3 or 4, 50 mg BID (n = 8), not related to study treatment",1 n (%)
same,Cough (AE),"[1]; Grade 3 or 4, Total (N = 12)",0 n (%)
same,"DVT (IJ) (AE; Deep Vein Thrombosis, Internal Jugular)","[1]; Grade 3 or 4, Total (N = 12)",0 n (%)
same,Dyspnea (AE),"[1]; Grade 3 or 4, Total (N = 12)",0 n (%)
same,Fall (AE),"[1]; Grade 3 or 4, Total (N = 12)",1 n (%)
same,Fatigue (AE),"[1]; Grade 3 or 4, Total (N = 12)",0 n (%)
same,Headache (AE),"[1]; Grade 3 or 4, Total (N = 12)",0 n (%)
same,Mild Infusion Reaction (AE),"[1]; Grade 3 or 4, Total (N = 12)",0 n (%)
same,Nausea (AE),"[1]; Grade 3 or 4, Total (N = 12)",0 n (%)
same,Pruritis (AE),"[1]; Grade 3 or 4, Total (N = 12)",0 n (%)
same,Rash (AE),"[1]; Grade 3 or 4, Total (N = 12)",1 n (%)
same,response of a subject having melanoma (MEL),"[2]; 25 mg BID Cohort, stable, with MK-3475 2 mg/kg IV",stable disease (SD)
same,response of a subject having transitional cell carcinoma (TCC) in bladder,"[2]; 25 mg BID Cohort, with MK-3475 2 mg/kg IV",partial response (PR)
same,response of a subject with melanoma (MEL),"[2]; 50 mg BID Cohort, first melanoma subject, with MK-3475 2 mg/kg IV",complete response (CR)
same,response of a subject with melanoma (MEL),"[2]; 50 mg BID cohort, further melanoma subject, with MK-3475 2 mg/kg IV",partial response (PR)
same,total best overall response (per modified RECIST v1.1),"[2]; 25 and 50 mg BID cohorts pooled, only subjects evaluable for response (5/7), with MK-3475",71%
same,disease control rate,"[2]; 25 and 50 mg BID cohorts pooled, only subjects evaluable for response (7/7), with MK-3475",100%
same,"CR, patients",[2]; [6],0 n (%)
same,"NE (not evaluable), patients",[2]; [6],0 n (%)
same,"PD, patients",[2]; [6],0 n (%)
same,"PR, patients",[2]; [6],2 (50%) n (%)
same,"CR, patients",[2]; [7],1 (33%) n (%)
same,"NE (not evaluable), patients",[2]; [7],1** n (%)
same,"PD, patients",[2]; [7],0 n (%)
same,"PR, patients",[2]; [7],2 (67%) n (%)
same,Disease Control Rate (DCR),[2]; [8],7/7
same,Objective response rate (ORR),[2]; [8],4/7
"NS(=O)(=O)NCCNc1nonc1C(=NO)Nc1ccc(F)c(C(F)(F)F)c1 [Compound 3, 4-({2-[(aminosulfonyl)amino]ethyl}amino)-N-[4-fluoro-3-(trifluoromethyl)phenyl]-N′-hydroxy-1,2,5-oxadiazole-3-carboximidamide]",IC50,[3],< 0.1 µM
